In patent US7361659B2, “Pyrrazolo-pyrimidine derivatives” (Hoffmann-La Roche Inc., priority 2005, dated 2008) one finds melting point data, which are given here for 24 compounds.

SMILES strings stand for the structures.

As usually defined, the melting point is the temperature, or range, at which the solid turns liquid.

`Cc1cc(-c2cc(C(F)(F)F)n3ncc(C(=O)Nc4nc(C)c(S(N)(=O)=O)s4)c3n2)ccc1C(F)(F)F` [Example 21, 5-(3-Methyl-4-trifluoromethyl-phenyl)-7-trifluoromethyl-pyrazolo[1,5-a]pyrimidine-3-carboxylic acid (4-methyl-5-sulfamoyl-thiazol-2-yl)-amide] gave a melting point of 309 °C.

As for `CCOc1cc(-c2cc(C(F)(F)F)n3ncc(C(=O)Nc4nc(C)c(S(=O)(=O)NC(C)(C)CO)s4)c3n2)ccc1C(F)(F)F` [Example 23, 5-(3-Ethoxy-4-trifluoromethyl-phenyl)-7-trifluoromethyl-pyrazolo[1,5-a]pyrimidine-3-carboxylic acid [5-(2-hydroxy-1,1-dimethyl-ethylsulfamoyl)-4-methyl-thiazol-2-yl]-amide], the melting point amounted to 276 °C. In the case of `Cc1nc(NC(=O)c2cnn3c(C(F)(F)F)cc(-c4ccc(C(F)(F)F)c(Cl)c4)nc23)sc1S(N)(=O)=O` [Example 25, 5-(3-Chloro-4-trifluoromethyl-phenyl)-7-trifluoromethyl-pyrazolo[1,5-a]pyrimidine-3-carboxylic acid (4-methyl-5-sulfamoyl-thiazol-2-yl)-amide], the melting point was found to be 299 °C. In the case of `Cc1nc(NC(=O)c2cnn3c(C(F)(F)F)cc(-c4ccc(Cl)c(Cl)c4)nc23)sc1S(N)(=O)=O` [Example 26, 5-(3,4-Dichloro-phenyl)-7-trifluoromethyl-pyrazolo[1,5-a]pyrimidine-3-carboxylic acid (4-methyl-5-sulfamoyl-thiazol-2-yl)-amide] it was 307 °C. In the case of `Cc1nc(NC(=O)c2cnn3c(C(F)(F)F)cc(-c4ccc(C(F)(F)F)c(OCC(F)(F)F)c4)nc23)sc1S(N)(=O)=O` [Example 27, 5-[3-(2,2,2-Trifluoro-ethoxy)-4-trifluoromethyl-phenyl]-7-trifluoromethyl-pyrazolo[1,5-a]pyrimidine-3-carboxylic acid (4-methyl-5-sulfamoyl-thiazol-2-yl)-amide] it was 264 °C; in that of `O=C(Nc1cc(S(=O)(=O)NC(CO)CO)sc1Cl)c1cnn2c(C(F)F)cc(-c3ccc(C(F)(F)F)cc3)nc12` [Example 28, 7-Difluoromethyl-5-(4-trifluoromethyl-phenyl)-pyrazolo[1,5-a]pyrimidine-3-carboxylic acid [2-chloro-5-(2-hydroxy-1-hydroxymethyl-ethylsulfamoyl)-thiophen-3-yl]-amide], 241 °C. `O=C(Nc1cc(S(=O)(=O)NC(CO)CO)sc1Cl)c1cnn2c(C(F)(F)F)cc(-c3ccc(C(F)(F)F)cc3)nc12` [Example 29, 7-Trifluoromethyl-5-(4-trifluoromethyl-phenyl)-pyrazolo[1,5-a]pyrimidine-3-carboxylic acid [2-chloro-5-(2-hydroxy-1-hydroxymethyl-ethylsulfamoyl)-thiophen-3-yl]-amide]: the melting point was determined as 225 °C. In the case of `Cc1nc(NC(=O)c2cnn3c(C(F)(F)F)cc(-c4ccc(C(F)(F)F)c(Cl)c4)nc23)sc1S(=O)(=O)NC(C)(C)CO` [Example 30, 5-(3-Chloro-4-trifluoromethyl-phenyl)-7-trifluoromethyl-pyrazolo[1,5-a]pyrimidine-3-carboxylic acid [5-(2-hydroxy-1,1-dimethyl-ethylsulfamoyl)-4-methyl-thiazol-2-yl]-amide] it was 274 °C; in that of `Cc1nc(NC(=O)c2cnn3c(C(F)(F)F)cc(-c4ccc(Cl)c(Cl)c4)nc23)sc1S(=O)(=O)NC(C)(C)CO` [Example 31, 5-(3,4-Dichloro-phenyl)-7-trifluoromethyl-pyrazolo[1,5-a]pyrimidine-3-carboxylic acid [5-(2-hydroxy-1,1-dimethyl-ethylsulfamoyl)-4-methyl-thiazol-2-yl]-amide], 265 °C. Consider `Cc1nc(NC(=O)c2cnn3c(C(F)(F)F)cc(-c4ccc(C(F)(F)F)c(OCC(F)(F)F)c4)nc23)sc1S(=O)(=O)NC(C)(C)CO` [Example 32, 5-[3-(2,2,2-Trifluoro-ethoxy)-4-trifluoromethyl-phenyl]-7-trifluoromethyl-pyrazolo[1,5-a]pyrimidine-3-carboxylic acid [5-(2-hydroxy-1,1-dimethyl-ethylsulfamoyl)-4-methyl-thiazol-2-yl]-amide], for which the melting point is 275 °C.

`Cc1cc(-c2cc(C(F)F)n3ncc(C(=O)Nc4nc(C)c(S(N)(=O)=O)s4)c3n2)ccc1C(F)(F)F` [Example 33, 7-Difluoromethyl-5-(3-methyl-4-trifluoromethyl-phenyl)-pyrazolo[1,5-a]pyrimidine-3-carboxylic acid (4-methyl-5-sulfamoyl-thiazol-2-yl)-amide] registered a melting point of 307 °C. For the compound `O=C(Nc1cc(S(=O)(=O)N(CCO)CCO)sc1Cl)c1cnn2c(C(F)F)cc(-c3ccc(C(F)(F)F)cc3)nc12` [Example 34, 7-Difluoromethyl-5-(4-trifluoromethyl-phenyl)-pyrazolo[1,5-a]pyrimidine-3-carboxylic acid {5-[bis-(2-hydroxy-ethyl)-sulfamoyl]-2-chloro-thiophen-3-yl}-amide], the melting point is 216 °C. Then `O=C(Nc1cc(S(=O)(=O)NCCO)sc1Cl)c1cnn2c(C(F)(F)F)cc(-c3ccc(C(F)(F)F)cc3)nc12` [Example 36, 7-Trifluoromethyl-5-(4-trifluoromethyl-phenyl)-pyrazolo[1,5-a]pyrimidine-3-carboxylic acid [2-chloro-5-(2-hydroxy-ethylsulfamoyl)-thiophen-3-yl]-amide], with 191 °C; and `CC(CO)(CO)NS(=O)(=O)c1cc(NC(=O)c2cnn3c(C(F)F)cc(-c4ccc(C(F)(F)F)cc4)nc23)c(Cl)s1` [Example 37, 7-Difluoromethyl-5-(4-trifluoromethyl-phenyl)-pyrazolo[1,5-a]pyrimidine-3-carboxylic acid [2-chloro-5-(2-hydroxy-1-hydroxymethyl-1-methyl-ethylsulfamoyl)-thiophen-3-yl]-amide], with 237 °C; and `CC(CO)(CO)NS(=O)(=O)c1cc(NC(=O)c2cnn3c(C(F)(F)F)cc(-c4ccc(C(F)(F)F)cc4)nc23)c(Cl)s1` [Example 38, 7-Trifluoromethyl-5-(4-trifluoromethyl-phenyl)-pyrazolo[1,5-a]pyrimidine-3-carboxylic acid [2-chloro-5-(2-hydroxy-1-hydroxymethyl-1-methyl-ethylsulfamoyl)-thiophen-3-yl]-amide], with 201 °C. In the case of `Cc1cc(-c2cc(C(F)F)n3ncc(C(=O)Nc4nc(C)c(S(=O)(=O)NC(C)(C)CO)s4)c3n2)ccc1C(F)(F)F` [Example 39, 7-Difluoromethyl-5-(3-methyl-4-trifluoromethyl-phenyl)-pyrazolo[1,5-a]pyrimidine-3-carboxylic acid [5-(2-hydroxy-1,1-dimethyl-ethylsulfamoyl)-4-methyl-thiazol-2-yl]-amide] it was 271 °C; in that of `Cc1nc(NC(=O)c2cnn3c(C(F)F)cc(-c4ccc(C(F)(F)F)cc4)nc23)sc1S(=O)(=O)N(CCO)CCO` [Example 40, 7-Difluoromethyl-5-(4-trifluoromethyl-phenyl)-pyrazolo[1,5-a]pyrimidine-3-carboxylic acid {5-[bis-(2-hydroxy-ethyl)-sulfamoyl]-4-methyl-thiazol-2-yl}-amide], 191 °C.

For `Cc1nc(NC(=O)c2cnn3c(C(F)(F)F)cc(-c4ccc(C(F)(F)F)cc4)nc23)sc1S(=O)(=O)N(CCO)CCO` [Example 41, 7-Trifluoromethyl-5-(4-trifluoromethyl-phenyl)-pyrazolo[1,5-a]pyrimidine-3-carboxylic acid {5-[bis-(2-hydroxy-ethyl)-sulfamoyl]-4-methyl-thiazol-2-yl}-amide], the melting point stood at 214 °C. Then `Cc1nc(NC(=O)c2cnn3c(C(F)(F)F)cc(-c4ccc(C(F)(F)F)cc4)nc23)sc1S(=O)(=O)NC(C)(CO)CO` [Example 42, 7-Trifluoromethyl-5-(4-trifluoromethyl-phenyl)-pyrazolo[1,5-a]pyrimidine-3-carboxylic acid [5-(2-hydroxy-1-hydroxymethyl-1-methyl-ethylsulfamoyl)-4-methyl-thiazol-2-yl]-amide], with 250 °C.

For `Cc1nc(NC(=O)c2cnn3c(C(F)F)cc(-c4ccc(C(F)(F)F)cc4)nc23)sc1S(=O)(=O)NC(C)(CO)CO` [Example 43, 7-Difluoromethyl-5-(4-trifluoromethyl-phenyl)-pyrazolo[1,5-a]pyrimidine-3-carboxylic acid [5-(2-hydroxy-1-hydroxymethyl-1-methyl-ethylsulfamoyl)-4-methyl-thiazol-2-yl]-amide], the melting point amounted to 248 °C. In the case of `O=C(Nc1cc(S(=O)(=O)NCCO)sc1Cl)c1cnn2c(C(F)F)cc(-c3ccc(C(F)(F)F)cc3)nc12` [Example 44, 7-Difluoromethyl-5-(4-trifluoromethyl-phenyl)-pyrazolo[1,5-a]pyrimidine-3-carboxylic acid [2-chloro-5-(2-hydroxy-ethylsulfamoyl)-thiophen-3-yl]-amide] it was 209 °C; in that of `Cc1nc(NC(=O)c2cnn3c(C(F)F)cc(-c4ccc(C(F)(F)F)cc4)nc23)sc1S(=O)(=O)NCCO` [Example 45, 7-Difluoromethyl-5-(4-trifluoromethyl-phenyl)-pyrazolo[1,5-a]pyrimidine-3-carboxylic acid [5-(2-hydroxy-ethylsulfamoyl)-4-methyl-thiazol-2-yl]-amide], 134 °C. Compound `Cc1nc(NC(=O)c2cnn3c(C(F)(F)F)cc(-c4ccc(C(F)(F)F)cc4)nc23)sc1S(=O)(=O)NCCO` [Example 46, 7-Trifluoromethyl-5-(4-trifluoromethyl-phenyl)-pyrazolo[1,5-a]pyrimidine-3-carboxylic acid [5-(2-hydroxy-ethylsulfamoyl)-4-methyl-thiazol-2-yl]-amide] returned a melting point of 166 °C. Then `Cc1sc(S(N)(=O)=O)cc1NC(=O)c1cnn2c(C(F)(F)F)cc(-c3ccc(C(F)(F)F)cc3)nc12` [Example 47, 7-Trifluoromethyl-5-(4-trifluoromethyl-phenyl)-pyrazolo[1,5-a]pyrimidine-3-carboxylic acid (2-methyl-5-sulfamoyl-thiophen-3-yl)-amide], with 297 °C.
